Data reported in US10160763B2, “WDR5 inhibitors and modulators” (Vanderbilt University, priority 2016, dated 2018).

These compounds were tested against WDR5 (Δ23, residues 24-334) (Homo sapiens, UniProt P61964) (assay: biochemical). Conditions: Kd (M), FPA-based binding affinity at the WDR5 WIN site; IC50 converted to Kd by modified Cheng-Prusoff equation; average of two experiments.

Point of comparison: `CC(NC(=O)Cc1ccc(F)c(Cl)c1)c1cc(-c2cn3c(n2)CCC3)ccc1OC1CCC1` (centres unmarked) [B212], Kd 4.7e-08 M. Against it:
- O=C(NCc1cccc(-c2cn3c(n2)CCC3)c1)c1cnco1 [B170] — 20-fold higher, 9.24e-07 M
- Cc1ccc(C(=O)NCc2cccc(-c3cn4c(n3)CCC4)c2)cc1Br [B171] — 13-fold higher, 6.26e-07 M
- N#Cc1cccc(C(=O)NCc2cccc(-c3cn4c(n3)CCC4)c2)c1 [B172] — 4.6-fold higher, 2.18e-07 M
- COc1cc(C(=O)NCc2cc(-c3cn4c(n3)CCC4)ccc2N2CC(C)OC(C)C2)ccc1C (centres unmarked) [B174] — 2.4-fold higher, 1.12e-07 M
- O=C(Cc1ccc(Cl)c(Cl)c1)N(Cc1cc(-c2cn3c(n2)CCC3)ccc1N1CCOCC1)CC1CC1 [B175, N-(Cyclopropylmethyl)-2-(3,4-dichlorophenyl)-N-(5-(6,7-dihydro-5H-pyrrolo[1,2-a]imidazol-2-yl)-2-morpholinobenzyl)acetamide] — within 1.5-fold, 5.2e-08 M
- CC(=O)N1CCCC(C(=O)N(Cc2cc(-c3cn4c(n3)CCC4)ccc2N2CCOCC2)CC2CC2)C1 (centres unmarked) [B176] — within 1.5-fold, 6.3e-08 M
- COC1CCN(c2ccc(-c3cn4c(n3)CCC4)cc2CNC(=O)Cc2ccc(Cl)c(Cl)c2)C1 (centres unmarked) [B177] — 44-fold higher, 2.08e-06 M
- COc1cccc(C(=O)NCc2cc(-c3cn4c(n3)CCC4)ccc2N2CCC(OC)C2)c1 (centres unmarked) [B178] — 37-fold higher, 1.73e-06 M
- COc1cc(C(=O)N(Cc2cc(-c3cn4c(n3)CCC4)ccc2N2CCCC2)CC2CC2)ccc1C [B179] — 77-fold higher, 3.62e-06 M
- COc1cccc(C(=O)NCc2cc(-c3cn4c(n3)CCC4)ccc2N2CC(C)OC(C)C2)c1 (centres unmarked) [B180] — 6.5-fold higher, 3.07e-07 M
- CCC(=O)N1CCCC(C(=O)NCc2cccc(-c3cn4c(n3)CCC4)c2)C1 (centres unmarked) [B181] — 210-fold higher, 1e-05 M
- CS(=O)(=O)N1CCCCC1C(=O)NCc1cccc(-c2cn3c(n2)CCC3)c1 (centres unmarked) [B182] — 23-fold higher, 1.09e-06 M
- CS(=O)(=O)NCc1cccc(C(=O)NCc2cccc(-c3cn4c(n3)CCC4)c2)c1 [B183] — 29-fold higher, 1.34e-06 M
- O=C(NCc1cccc(-c2cn3c(n2)CCC3)c1)C1CCCN(C(=O)CC(F)(F)F)C1 (centres unmarked) [B184] — within 1.5-fold, 5.8e-08 M
- CC(C)C(=O)N1CCCC(C(=O)NCc2cccc(-c3cn4c(n3)CCC4)c2)C1 (centres unmarked) [B185] — 3.3-fold higher, 1.55e-07 M
- CS(=O)(=O)N1CCCC(C(=O)NCc2cccc(-c3cn4c(n3)CCC4)c2)C1 (centres unmarked) [B186] — 16-fold lower, 3e-09 M
- O=C(NCc1cccc(-c2cn3c(n2)CCC3)c1)C1CCCN(C(=O)C2CC2)C1 (centres unmarked) [B187] — 20-fold higher, 9.47e-07 M
- CC(=O)N1CCCCC1C(=O)NCc1cccc(-c2cn3c(n2)CCC3)c1 (centres unmarked) [B188] — within 1.5-fold, 3.3e-08 M
- CC(=O)NCc1cccc(C(=O)NCc2cccc(-c3cn4c(n3)CCC4)c2)c1 [B189] — 16-fold higher, 7.41e-07 M
- CC(c1cccc(-c2cn3c(n2)CCC3)c1)N(CC1CC1)C(=O)Cc1ccc(Cl)c(Cl)c1 (centres unmarked) [B190] — 4.3-fold lower, 1.1e-08 M
- COc1cccc(C(=O)N(CC2CC2)C(C)c2cccc(-c3cn4c(n3)CCC4)c2)c1 (centres unmarked) [B191] — 39-fold higher, 1.85e-06 M
- CC(NC(=O)Cc1ccc(Cl)c(Cl)c1)c1cccc(-c2cn3c(n2)CCC3)c1 (centres unmarked) [B192] — 2.7-fold higher, 1.25e-07 M
- O=C(Cc1ccc(F)c(Cl)c1)NCc1cc(-c2cn3c(n2)CCC3)ccc1N1CCOCC1 [B193] — 69-fold higher, 3.23e-06 M
- COc1cc(C(=O)NCc2cc(-c3cn4c(n3)CCC4)ccc2N2CCOCC2)ccc1C [B194] — 43-fold higher, 2.04e-06 M
- O=C(NCc1cc(-c2cn3c(n2)CCC3)ccc1N1CCOCC1)c1cc(Cl)ccn1 [B195] — 20-fold higher, 9.61e-07 M
- O=C(Cc1ccc(F)c(Cl)c1)NCc1cc(-c2cn3c(n2)CCC3)ccc1OC1CCC1 [B197] — 46-fold higher, 2.17e-06 M
- COc1cc(C(=O)N(Cc2cc(-c3cn4c(n3)CCC4)ccc2N2CCOCC2)CC2CCCCC2)ccc1C [B198] — 3.4-fold higher, 1.59e-07 M
- CC(C)N1CCCC(C(=O)NCc2cc(-c3cn4c(n3)CCC4)ccc2OC2CCC2)C1 (centres unmarked) [B199] — 130-fold higher, 6.3e-06 M
- COc1cc(C(=O)N(Cc2cc(-c3cn4c(n3)CCC4)ccc2N2CCOCC2)CC2CC2)ccc1C [B200] — 86-fold higher, 4.04e-06 M
- COc1cc(C(=O)NC(C)c2cccc(-c3cn4c(n3)CCC4)c2)ccc1C (centres unmarked) [B201] — 2-fold lower, 2.3e-08 M
- O=C(Cc1ccc(F)c(Cl)c1)N(Cc1cc(-c2cn3c(n2)CCC3)ccc1N1CCOCC1)CC1CCOCC1 [B202] — 9.7-fold higher, 4.56e-07 M
- COc1cc(C(=O)NCc2cc(-c3cn4c(n3)CCC4)ccc2N2CCOCC2C)ccc1C (centres unmarked) [B203] — 2-fold lower, 2.3e-08 M
- COc1cc(C(=O)N(Cc2cc(-c3cn4c(n3)CCC4)ccc2N2CCOCC2)CC2CCOCC2)ccc1C [B204] — 1.8-fold lower, 2.6e-08 M
- COc1cccc(C(=O)NC(C)c2cccc(-c3cn4c(n3)CCC4)c2)c1 (centres unmarked) [B205] — 2-fold lower, 2.3e-08 M
- CC(NC(=O)Cc1ccc(F)c(Cl)c1)c1cccc(-c2cn3c(n2)CCC3)c1 (centres unmarked) [B206] — 29-fold higher, 1.35e-06 M
- COc1cc(C(=O)NC(C)c2cc(-c3cn4c(n3)CCC4)ccc2OC2CCC2)ccc1C (centres unmarked) [B207] — 2.9-fold lower, 1.6e-08 M
- CC(=O)N1CCCC(C(=O)NC(C)c2cc(-c3cn4c(n3)CCC4)ccc2OC2CCC2)C1 (centres unmarked) [B208] — 2.1-fold lower, 2.2e-08 M
- CC(=O)N1CCCC(C(=O)NC(C)c2cccc(-c3cn4c(n3)CCC4)c2)C1 (centres unmarked) [B209] — 4.7-fold lower, 1e-08 M
- CCC(=O)N1CCCC(C(=O)NC(C)c2cc(-c3cn4c(n3)CCC4)ccc2OC2CCC2)C1 (centres unmarked) [B210] — 6.6-fold higher, 3.1e-07 M
- CCC(=O)N1CCCC(C(=O)NC(C)c2cccc(-c3cn4c(n3)CCC4)c2)C1 (centres unmarked) [B211] — 4.3-fold lower, 1.1e-08 M
- COc1cc(C(=O)NC(C)c2cc(-c3cn4c(n3)CCC4)ccc2N2CCOCC2)ccc1C (centres unmarked) [B213] — the same, 4.7e-08 M
- CC(NC(=O)Cc1ccc(F)c(Cl)c1)c1cc(-c2cn3c(n2)CCC3)ccc1N1CCOCC1 (centres unmarked) [B214] — within 1.5-fold, 4e-08 M
- CCC(NC(=O)c1ccc(C)c(OC)c1)c1cccc(-c2cn3c(n2)CCC3)c1 (centres unmarked) [B215] — 2.8-fold lower, 1.7e-08 M
- CC(C)(NC(=O)Cc1ccc(F)c(Cl)c1)c1cccc(-c2cn3c(n2)CCC3)c1 [B216] — 13-fold higher, 5.99e-07 M
- CCC(NC(=O)Cc1ccc(F)c(Cl)c1)c1cccc(-c2cn3c(n2)CCC3)c1 (centres unmarked) [B217] — within 1.5-fold, 3.2e-08 M
- NC(C(=O)NCc1cc(-c2cn3c(n2)CCC3)ccc1N1CCOCC1)c1ccccc1 (centres unmarked) [B218] — 3.8-fold higher, 1.79e-07 M
- NC(C(=O)NCc1cc(-c2cn3c(n2)CCC3)ccc1OC1CCC1)c1ccccc1 (centres unmarked) [B219] — 8.1-fold higher, 3.83e-07 M
- COc1cc(C(=O)NC(c2cccc(-c3cn4c(n3)CCC4)c2)C(C)C)ccc1C (centres unmarked) [B220, N-(1-(3-(6,7-Dihydro-5H-pyrrolo[1,2-a]imidazol-2-yl)phenyl)-2-methylpropyl)-3-methoxy-4-methylbenzamide] — 4.3-fold higher, 2.04e-07 M
- CC(C)C(NC(=O)Cc1ccc(F)c(Cl)c1)c1cccc(-c2cn3c(n2)CCC3)c1 (centres unmarked) [B221] — 2.5-fold higher, 1.17e-07 M
- CC(NC(=O)Cc1ccc(F)c(Cl)c1)c1cc(-c2cn3c(n2)CCC3)ccc1F (centres unmarked) [B222] — 2.1-fold higher, 9.9e-08 M
- COc1cc(C(=O)NCc2cc(-c3cn4c(n3)CCC4)cnc2N2CCOCC2)ccc1C [B223, N-((5-(6,7-dihydro-5H-pyrrolo[1,2-a]imidazol-2-yl)-2-morpholinopyridin-3-yl)methyl)-3-methoxy-4-methylbenzamide] — 1.9-fold higher, 9.1e-08 M
- O=C(Cc1ccc(F)c(Cl)c1)NCc1cc(-c2cn3c(n2)CCC3)cnc1OC1CCC1 [B224] — within 1.5-fold, 6.1e-08 M
